Our source for the Km, IC50 and EC50 values is publication PMC3318891, “Insights into the In Vivo Regulation of Glutamate Dehydrogenase from the Foot Muscle of an Estivating Land Snail” (Enzyme Research, 2012).

Common to all, as to format: biochemical
Experiment [1] concerns T1, control Otala lactea foot muscle GDH.
T1 construct: native enzyme purified from foot muscle of active (control) snails on GTP-agarose; low-phosphate form, sites unknown
Nature of the experiment: NADH absorbance at […] nm, glutamate-synthesizing direction. Conditions: no ADP, 0.2 mM NADH, HEPES pH 7.2.

For experiment [2], the system named is T2, 10 day estivated Otala lactea foot muscle GDH.
T2 construct: native enzyme purified from foot muscle of 10-day estivated snails on GTP-agarose; high-phosphate form, sites unknown
Described as above. As to conditions: no ADP; optimal co-substrates 100 mM NH4Cl, 0.2 mM NADH; HEPES pH 7.2.

Experiment [3] has as its system T1, control Otala lactea foot muscle GDH. The experiment can be described thus: NADH absorbance at […] nm, glutamate-oxidizing direction. Conditions: no ADP, Tris-HCl pH 8.0.
Experiment [4] relates to T2, 10 day estivated Otala lactea foot muscle GDH. Described as above. As to conditions: no ADP, Tris-HCl pH 8.0.
Experiment [5] relates to T1, control Otala lactea foot muscle GDH. The experiment can be described thus: NADH absorbance at […] nm, glutamate-synthesizing direction. Conditions: inhibitor; suboptimal substrates 0.2 mM α-ketoglutarate, 0.15 mM NADH, 40 mM NH4Cl; HEPES pH 7.2.
The test system is the same in experiment [6]. Described as above. Conditions: activation constant (half-maximal activation, not association constant); suboptimal substrates 0.2 mM α-ketoglutarate, 0.15 mM NADH, 40 mM NH4Cl; HEPES pH 7.2.
The test system of experiment [7] is T2, 10 day estivated Otala lactea foot muscle GDH. Nature of the experiment: NADH absorbance at […] nm, glutamate-oxidizing direction. Conditions: activation constant (half-maximal activation, not association constant); suboptimal substrates 10 mM L-glutamate, 0.5 mM NAD+; Tris-HCl pH 8.0.
In experiment [8] the test system is T1, control Otala lactea foot muscle GDH. Described as above. As to conditions: activation constant (half-maximal activation, not association constant); suboptimal substrates 10 mM L-glutamate, 0.5 mM NAD+; Tris-HCl pH 8.0.
Experiment [9] deals with T2, 10 day estivated Otala lactea foot muscle GDH. Nature of the experiment: NADH absorbance at […] nm, glutamate-synthesizing direction. Conditions: inhibitor; suboptimal substrates 0.2 mM α-ketoglutarate, 0.15 mM NADH, 40 mM NH4Cl; HEPES pH 7.2.
Setting [10] is: optimal co-substrate 1.5 mM NAD+.
Setting [11] is: optimal co-substrate 50 mM L-glutamate.

For `O=C(O)CCC(=O)C(=O)O` [α-ketoglutarate], the Km amounted to 190 ± 30 µM in [1] (optimal co-substrates 100 mM NH4Cl) and 550 ± 50 µM in [2].
With `N[C@@H](CCC(=O)O)C(=O)O` [L-glutamate], the figures for the Km in [3] (setting [10]) and in [4] (setting [10]) were 900 ± 20 µM and 840 ± 20 µM, respectively.
Take `NC(=O)c1ccc[n+]([C@@H]2O[C@H](COP(=O)(O)OP(=O)(O)OC[C@H]3O[C@@H](n4cnc5c(N)ncnc54)[C@H](O)[C@@H]3O)[C@@H](O)[C@H]2O)c1` [NAD^+]: the Michaelis constant (Km) is 590 ± 80 µM in experiment [3] (setting [11]) and 490 ± 20 µM in [4] (setting [11]).
`N` [NH4 ^+]: the Km in [1] (optimal co-substrates 1 mM α-ketoglutarate) was found to be 63000 ± 2000 µM.
In the case of `Nc1ncnc2c1ncn2[C@@H]1O[C@H](COP(=O)(O)OP(=O)(O)OP(=O)(O)O)[C@@H](O)[C@H]1O` [ATP], the IC50 in experiment [5] was 7000 ± 1000 µM.
Molecule `Nc1ncnc2c1ncn2[C@@H]1O[C@H](COP(=O)(O)O)[C@@H](O)[C@H]1O` [AMP] displayed a half-maximal effective concentration (EC50) in experiment [6] of 270 ± 40 µM.
`Nc1ncnc2c1ncn2[C@@H]1O[C@H](COP(=O)(O)OP(=O)(O)O)[C@@H](O)[C@H]1O` [ADP]: the EC50 in [7] came out at 3.5 ± 0.5 µM; in experiment [8], 4.7 ± 0.7 µM.
In the case of `Nc1nc2c(ncn2[C@@H]2O[C@H](COP(=O)(O)OP(=O)(O)OP(=O)(O)O)[C@@H](O)[C@H]2O)c(=O)[nH]1` [GTP], the IC50 worked out at 0.34 ± 0.02 µM in [5] and 0.15 ± 0.02 µM in experiment [9].

A word on the Km: it is the concentration of substrate that gives half-maximal velocity. The term IC50 denotes the concentration at which inhibition is half-maximal. Low values mean greater potency, high ones weaker potency. What is called EC50 is the concentration needed to bring the measured effect to its halfway point. A high value points to lower potency in that assay.
